A short description of series [1]: Selectivity ratio of IC50 for C-terminal GST-tagged human HDAC5 to IC50 for human N-terminal GST-tagged HDAC6 expressed in baculovirus infected sf9 insect cells.
The nature of series [2]: Selectivity ratio of IC50 for human HDAC4 expressed in baculovirus infected sf9 insect cells to IC50 for human N-terminal GST-tagged HDAC6 expressed in baculovirus infected sf9 insect cells.
Series [3] in a line: Stability in rat liver S9 fraction assessed as parent compound remaining at 5 uM after 90 mins in presence of NADPH by LC-MS/MS analysis. Type of series: ADME, subcellular. As to conditions: read-out: Stability.
The nature of series [4]: Selectivity ratio of IC50 for C-terminal His-tagged human HDAC9 (604 to 1066 residues) expressed in baculovirus infected sf9 insect cells to IC50 for human N-terminal GST-tagged HDAC6 expressed in baculovirus infected sf9 insect cells.
Series [5] can be described thus: Toxicity in C57BL/6 mouse assessed as effect on body weight at 10 mg/kg, ip administered for 5 days/week for two cycles and measured every other day relative to control. As to conditions: in vivo, 120 h. The class given is organism-based.
A short description of series [6]: Toxicity in C57BL/6 mouse assessed as effect on platelet level at 10 mg/kg, ip administered for 5 days/week for two cycles and measured 60 mins post last dose by cell counter method relative to control. As to conditions: in vivo, 1 h. The class given is organism-based.
Series [7] is described as follows: Toxicity in C57BL/6 mouse assessed as effect on platelet level at 30 mg/kg, ip administered for 5 days/week for two cycles and measured 60 mins post last dose by cell counter method relative to control. As to conditions: in vivo, 1 h. The class given is organism-based.
Series [8] in a line: Toxicity in C57BL/6 mouse assessed as effect on WBC level at 10 mg/kg, ip administered for 5 days/week for two cycles and measured 60 mins post last dose by beckman coulter counting method relative to control. As to conditions: in vivo, 1 h. The class given is organism-based.
The nature of series [9]: Toxicity in C57BL/6 mouse assessed as effect on WBC level at 30 mg/kg, ip administered for 5 days/week for two cycles and measured 60 mins post last dose by beckman coulter counting method relative to control. The class given is organism-based. As to conditions: in vivo, 1 h.
Series [10] in a line: Toxicity in C57BL/6 mouse assessed as inactivity/hyperactivity up to 50 mg/kg, ip administered for 5 days/week for two cycles and measured daily starting from day 1. Type of series: organism-based. As to conditions: in vivo, 120 h.
Series [11] can be described thus: Toxicity in C57BL/6 mouse assessed as induction of kyphosis up to 50 mg/kg, ip administered for 5 days/week for two cycles and measured daily starting from day 1. The class given is organism-based. As to conditions: in vivo, 120 h.
Series [12] can be described thus: Toxicity in C57BL/6 mouse assessed as induction of piloerection up to 50 mg/kg, ip administered for 5 days/week for two cycles and measured daily starting from day 1. As to conditions: in vivo, 120 h. The class given is organism-based.
A short description of series [13]: Toxicity in C57BL/6 mouse assessed as effect on spasms up to 50 mg/kg, ip administered for 5 days/week for two cycles and measured daily starting from day 1. Type of series: organism-based. As to conditions: in vivo, 120 h.
A short description of series [14]: Toxicity in C57BL/6 mouse assessed as effect on stool up to 50 mg/kg, ip administered for 5 days/week for two cycles and measured daily starting from day 1. Type of series: organism-based. As to conditions: in vivo, 120 h.
Series [15] in a line: Toxicity in C57BL/6 mouse assessed as induction of diarrhea up to 50 mg/kg, ip administered for 5 days/week for two cycles and measured daily starting from day 1. The class given is organism-based. As to conditions: in vivo, 120 h.
Series [16] can be described thus: Toxicity in C57BL/6 mouse assessed as effect on social behavior up to 50 mg/kg, ip administered for 5 days/week for two cycles. Type of series: organism-based. As to conditions: in vivo, 120 h.
The nature of series [17]: Toxicity in C57BL/6 mouse assessed as induction of leukopenia up to 50 mg/kg, ip administered for 5 days/week for two cycles. Type of series: organism-based. As to conditions: in vivo, 120 h.
Series [18] can be described thus: Total clearance in CD-1 mouse at […], iv measured within 6 hrs by LC-MS/MS analysis. The class given is ADME, organism-based. As to conditions: in vivo.
A short description of series [19]: Oral bioavailability in CD-1 mouse at 5.2 mg/kg measured within 6 hrs by LC-MS/MS analysis. The class given is ADME, organism-based. As to conditions: in vivo.
Series [20] in a line: Cmax in CD-1 mouse at 5.2 mg/kg, po measured within 6 hrs by LC-MS/MS analysis. The class given is ADME, organism-based. As to conditions: in vivo. Set-up: dose 5.2 mg/kg, route oral.
Series [21] in a line: Total AUC in CD-1 mouse at 5.2 mg/kg, po measured within 6 hrs by LC-MS/MS analysis. Type of series: ADME, organism-based. Set-up: dose 5.2 mg/kg, route oral, time AUCmax. As to conditions: in vivo.
Series [22] concerns the target T1, Protein deacetylase HDAC6 (Mus musculus) (UniProt Q9Z2V5).
T1 sequence (whole entry): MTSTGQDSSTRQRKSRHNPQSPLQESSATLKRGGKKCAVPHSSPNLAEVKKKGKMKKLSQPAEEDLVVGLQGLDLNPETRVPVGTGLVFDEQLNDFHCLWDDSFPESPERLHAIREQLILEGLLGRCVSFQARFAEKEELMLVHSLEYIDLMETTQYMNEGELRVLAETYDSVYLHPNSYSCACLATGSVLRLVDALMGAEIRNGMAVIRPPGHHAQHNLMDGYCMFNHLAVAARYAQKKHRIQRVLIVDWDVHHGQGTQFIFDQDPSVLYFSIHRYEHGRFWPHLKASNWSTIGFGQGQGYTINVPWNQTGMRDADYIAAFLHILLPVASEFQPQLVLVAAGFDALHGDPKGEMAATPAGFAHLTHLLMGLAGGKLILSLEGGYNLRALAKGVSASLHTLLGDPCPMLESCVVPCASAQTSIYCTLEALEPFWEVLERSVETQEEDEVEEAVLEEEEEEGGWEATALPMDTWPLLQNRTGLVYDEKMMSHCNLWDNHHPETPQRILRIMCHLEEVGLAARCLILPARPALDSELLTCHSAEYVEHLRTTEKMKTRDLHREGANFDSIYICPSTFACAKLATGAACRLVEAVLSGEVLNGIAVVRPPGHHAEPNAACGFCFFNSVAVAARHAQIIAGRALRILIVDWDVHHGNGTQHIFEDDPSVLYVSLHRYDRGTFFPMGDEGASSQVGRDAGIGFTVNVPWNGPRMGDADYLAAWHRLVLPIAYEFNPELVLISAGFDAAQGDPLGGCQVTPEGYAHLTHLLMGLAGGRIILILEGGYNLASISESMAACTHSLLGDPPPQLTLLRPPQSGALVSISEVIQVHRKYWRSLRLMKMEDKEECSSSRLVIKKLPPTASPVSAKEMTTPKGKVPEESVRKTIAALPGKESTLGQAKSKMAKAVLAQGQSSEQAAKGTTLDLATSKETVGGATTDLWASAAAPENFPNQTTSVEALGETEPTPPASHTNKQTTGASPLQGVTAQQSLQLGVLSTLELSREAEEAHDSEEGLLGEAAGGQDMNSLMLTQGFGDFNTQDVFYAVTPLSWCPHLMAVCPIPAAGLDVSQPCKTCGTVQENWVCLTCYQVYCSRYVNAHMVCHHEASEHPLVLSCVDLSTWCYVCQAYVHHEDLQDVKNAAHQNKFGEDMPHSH
Kind of series: Inhibition of HDAC6 in C57BL/6 mouse regulatory T cells assessed as increase in Treg-mediated suppression of anti-CD3 induced CD4+ cell division at 1 uM after 72 hrs in presence mitomycin-treated APC by CFSE dye based flow cytometric assay relative to control.

Series [23] in a line: Inhibition of C57BL/6 mouse effector T cells proliferation at 500 nM after 72 hrs in absence of regulatory T cells by CFSE dye based flow cytometric assay relative to control.
The target of a further series is Cytochrome P450 3A4 (Homo sapiens, UniProt P08684).
Sequence of Cytochrome P450 3A4 (P08684 whole entry): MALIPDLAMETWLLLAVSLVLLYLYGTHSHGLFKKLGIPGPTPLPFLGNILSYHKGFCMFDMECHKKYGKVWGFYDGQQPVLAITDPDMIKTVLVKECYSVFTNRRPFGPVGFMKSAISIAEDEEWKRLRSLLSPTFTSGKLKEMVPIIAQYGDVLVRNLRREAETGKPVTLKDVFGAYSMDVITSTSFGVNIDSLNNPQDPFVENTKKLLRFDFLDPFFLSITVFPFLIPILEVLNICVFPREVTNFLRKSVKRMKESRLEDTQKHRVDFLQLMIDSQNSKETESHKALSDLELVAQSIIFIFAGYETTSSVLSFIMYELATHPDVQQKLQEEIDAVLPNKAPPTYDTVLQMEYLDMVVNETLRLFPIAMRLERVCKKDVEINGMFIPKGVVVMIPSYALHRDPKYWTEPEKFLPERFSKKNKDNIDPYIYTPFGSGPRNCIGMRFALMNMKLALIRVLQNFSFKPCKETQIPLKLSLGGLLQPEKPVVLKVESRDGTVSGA

Description for Cytochrome P450 3A4: Inhibition of CYP3A4 in human liver microsomes using testosterone as substrate

For `Cn1c(Sc2ccc(C(=O)NO)cc2)nnc1-c1cccs1`, the “Ratio IC50” value stood at 326 in series [1], 304 in [2] and 132 in series [4]. The remaining at […], 5 µM in [3] was 82%. For the same compound, the Activity in series [5] is 2.8%; in series [6], -11%; in series [7], -2%; in series [8], 1%; in series [9], -34%; in series [10] it was “Non-Toxic”. The Activity entry in [11], in series [12], in series [13], in series [14], in series [15] and in series [16] was “Non-Toxic” each time. The Activity result in series [17] was “Toxic”. The clearance at 6 h in series [18] is 182 mL/min/kg. In series [19], this compound registered a bioavailability of 26%. The compound also came in with a Cmax in series [20] of 144 ng/mL. This compound also yielded an AUC at 6 h in [21] of 123 ng·h/mL. Besides, the fold change (FC) in series [22] turned out to be 3.4. Moreover, the inhibition at 72 h, 0.5 µM in [23] is < 0.5%. Moreover, at Cytochrome P450 3A4, half-maximal inhibition (IC50) was put at 26.6 µM.

Source of the values: ChEMBL document CHEMBL4414648, “Novel Benzohydroxamate-Based Potent and Selective Histone Deacetylase 6 (HDAC6) Inhibitors Bearing a Pentaheterocyclic Scaffold: Design, Synthesis, and Biological Evaluation” (J Med Chem, 2019).
